Results: PubChem BioAssay AID2060618 (Molecular Pharmacology Branch, DTP, NCI, 2025)

Tested on: 454973-116-R2-J3-PDC spheroids, percent test/control viability
Assay: Anticancer human tumor 454973-116-R2-J3-PDC patient-derived pancreatic carcinoma cell line growth inhibition [CLK]
Conditions: spheroids with HUVEC and MSC; for IC50: curve of first compound; for viability, T/C: stronger effect = lower value
How it was run: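 Patient-derived tumor cells grown as complex spheroids with HUVEC endothelial cells and mesenchymal stem cells, treated with drug combinations. Concentrations descend in half-log steps from near clinical Cmax, or from 10 microM if Cmax unknown.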
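Note: spheroids exposed to compounds for 7 days before readout.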

Structure (SMILES): CC1(C)CCC(CN2CCN(c3ccc(C(=O)NS(=O)(=O)c4ccc(NCC5CCOCC5)c([N+](=O)[O-])c4)c(Oc4cnc5[nH]ccc5c4)c3)CC2)=C(c2ccc(Cl)cc2)C1 + CN1CCN(c2cc(C(=O)Nc3cc4cc(-c5cnn(C)c5)ccc4cn3)ccn2)CC1
- IC50 (second compound 0.0316 µM): 7120 nM
- IC50 (second compound 0.1 µM): 5230 nM
- IC50 (second compound 0.316 µM): < 31.6 nM
- IC50 (second compound 1 µM): < 31.6 nM
- IC50 (second compound 3.16 µM): < 31.6 nM
- IC50 (second compound 10 µM): < 31.6 nM
- viability, T/C (second compound 0.0316 µM, first compound 0.0316 µM): 99.1%
- viability, T/C (second compound 0.0316 µM, first compound 0.1 µM): 93.8%
- viability, T/C (second compound 0.0316 µM, first compound 0.316 µM): 96.2%
- viability, T/C (second compound 0.0316 µM, first compound 1 µM): 110%
- viability, T/C (second compound 0.0316 µM, first compound 3.16 µM): 105%
- viability, T/C (second compound 0.0316 µM, first compound 10 µM): 28.6%
- viability, T/C (second compound 0.1 µM, first compound 0.0316 µM): 80%
- viability, T/C (second compound 0.1 µM, first compound 0.1 µM): 74.3%
- viability, T/C (second compound 0.1 µM, first compound 0.316 µM): 69.3%
- viability, T/C (second compound 0.1 µM, first compound 1 µM): 84%
- viability, T/C (second compound 0.1 µM, first compound 3.16 µM): 72.7%
- viability, T/C (second compound 0.1 µM, first compound 10 µM): 20.2%
- viability, T/C (second compound 0.316 µM, first compound 0.0316 µM): 1.7%
- viability, T/C (second compound 0.316 µM, first compound 0.1 µM): 1.6%
- viability, T/C (second compound 0.316 µM, first compound 0.316 µM): 2.41%
- viability, T/C (second compound 0.316 µM, first compound 1 µM): 3.39%
- viability, T/C (second compound 0.316 µM, first compound 3.16 µM): 0.47%
- viability, T/C (second compound 0.316 µM, first compound 10 µM): 2.29%
- viability, T/C (second compound 1 µM, first compound 0.0316 µM): 0.12%
- viability, T/C (second compound 1 µM, first compound 0.1 µM): 0.14%
- viability, T/C (second compound 1 µM, first compound 0.316 µM): 0.18%
- viability, T/C (second compound 1 µM, first compound 1 µM): 0.14%
- viability, T/C (second compound 1 µM, first compound 3.16 µM): 0.16%
- viability, T/C (second compound 1 µM, first compound 10 µM): 0.4%
- viability, T/C (second compound 3.16 µM, first compound 0.0316 µM): 0.18%
- viability, T/C (second compound 3.16 µM, first compound 0.1 µM): 0.15%
- viability, T/C (second compound 3.16 µM, first compound 0.316 µM): 0.18%
- viability, T/C (second compound 3.16 µM, first compound 1 µM): 0.24%
- viability, T/C (second compound 3.16 µM, first compound 3.16 µM): 0.61%
- viability, T/C (second compound 3.16 µM, first compound 10 µM): 0.7%
- viability, T/C (second compound 10 µM, first compound 0.0316 µM): 0.14%
- viability, T/C (second compound 10 µM, first compound 0.1 µM): 0.13%
- viability, T/C (second compound 10 µM, first compound 0.316 µM): 0.21%
- viability, T/C (second compound 10 µM, first compound 1 µM): 0.2%
- viability, T/C (second compound 10 µM, first compound 3.16 µM): 0.15%
- viability, T/C (second compound 10 µM, first compound 10 µM): 0.17%

Structure (SMILES): NC(=O)C(=Cn1cnc(-c2cc(C(F)(F)F)cc(C(F)(F)F)c2)n1)c1cncnc1 + CN1CCN(c2cc(C(=O)Nc3cc4cc(-c5cnn(C)c5)ccc4cn3)ccn2)CC1
- IC50 (second compound 0.0316 µM): 530 nM
- IC50 (second compound 0.1 µM): 167 nM
- IC50 (second compound 0.316 µM): < 9.49 nM
- IC50 (second compound 1 µM): < 9.49 nM
- IC50 (second compound 3.16 µM): < 9.49 nM
- IC50 (second compound 10 µM): < 9.49 nM
- viability, T/C (second compound 0.0316 µM, first compound 0.00949 µM): 93.1%
- viability, T/C (second compound 0.0316 µM, first compound 0.03 µM): 96.2%
- viability, T/C (second compound 0.0316 µM, first compound 0.0949 µM): 70.5%
- viability, T/C (second compound 0.0316 µM, first compound 0.3 µM): 65.9%
- viability, T/C (second compound 0.0316 µM, first compound 0.949 µM): 36.9%
- viability, T/C (second compound 0.0316 µM, first compound 3 µM): 9.03%
- viability, T/C (second compound 0.1 µM, first compound 0.00949 µM): 81.8%
- viability, T/C (second compound 0.1 µM, first compound 0.03 µM): 65.2%
- viability, T/C (second compound 0.1 µM, first compound 0.0949 µM): 62.8%
- viability, T/C (second compound 0.1 µM, first compound 0.3 µM): 41%
- viability, T/C (second compound 0.1 µM, first compound 0.949 µM): 20.2%
- viability, T/C (second compound 0.1 µM, first compound 3 µM): 2%
- viability, T/C (second compound 0.316 µM, first compound 0.00949 µM): 0.71%
- viability, T/C (second compound 0.316 µM, first compound 0.03 µM): 0.67%
- viability, T/C (second compound 0.316 µM, first compound 0.0949 µM): 0.65%
- viability, T/C (second compound 0.316 µM, first compound 0.3 µM): 0.1%
- viability, T/C (second compound 0.316 µM, first compound 0.949 µM): 0.08%
- viability, T/C (second compound 0.316 µM, first compound 3 µM): 0.11%
- viability, T/C (second compound 1 µM, first compound 0.00949 µM): 0.11%
- viability, T/C (second compound 1 µM, first compound 0.03 µM): 0.15%
- viability, T/C (second compound 1 µM, first compound 0.0949 µM): 1.14%
- viability, T/C (second compound 1 µM, first compound 0.3 µM): 0.08%
- viability, T/C (second compound 1 µM, first compound 0.949 µM): 0.08%
- viability, T/C (second compound 1 µM, first compound 3 µM): 0.06%
- viability, T/C (second compound 3.16 µM, first compound 0.00949 µM): 0.08%
- viability, T/C (second compound 3.16 µM, first compound 0.03 µM): 0.28%
- viability, T/C (second compound 3.16 µM, first compound 0.0949 µM): 0.13%
- viability, T/C (second compound 3.16 µM, first compound 0.3 µM): 0.13%
- viability, T/C (second compound 3.16 µM, first compound 0.949 µM): 0.1%
- viability, T/C (second compound 3.16 µM, first compound 3 µM): 0.72%
- viability, T/C (second compound 10 µM, first compound 0.00949 µM): 1.5%
- viability, T/C (second compound 10 µM, first compound 0.03 µM): 0.12%
- viability, T/C (second compound 10 µM, first compound 0.0949 µM): 0.2%
- viability, T/C (second compound 10 µM, first compound 0.3 µM): 0.2%
- viability, T/C (second compound 10 µM, first compound 0.949 µM): 0.22%
- viability, T/C (second compound 10 µM, first compound 3 µM): 0.23%
